Reference: the Kinase Knowledgebase extract (Sharma et al. 2016)
Several values for one entry are separate records, joined by “and”; a condition that tells them apart may be missing. Equal entries are not always repeated.

target: EGFR (Human), P00533 [T790M/L858R]; details: not given
Sequence (P00533 whole entry T790M/L858R, looked up): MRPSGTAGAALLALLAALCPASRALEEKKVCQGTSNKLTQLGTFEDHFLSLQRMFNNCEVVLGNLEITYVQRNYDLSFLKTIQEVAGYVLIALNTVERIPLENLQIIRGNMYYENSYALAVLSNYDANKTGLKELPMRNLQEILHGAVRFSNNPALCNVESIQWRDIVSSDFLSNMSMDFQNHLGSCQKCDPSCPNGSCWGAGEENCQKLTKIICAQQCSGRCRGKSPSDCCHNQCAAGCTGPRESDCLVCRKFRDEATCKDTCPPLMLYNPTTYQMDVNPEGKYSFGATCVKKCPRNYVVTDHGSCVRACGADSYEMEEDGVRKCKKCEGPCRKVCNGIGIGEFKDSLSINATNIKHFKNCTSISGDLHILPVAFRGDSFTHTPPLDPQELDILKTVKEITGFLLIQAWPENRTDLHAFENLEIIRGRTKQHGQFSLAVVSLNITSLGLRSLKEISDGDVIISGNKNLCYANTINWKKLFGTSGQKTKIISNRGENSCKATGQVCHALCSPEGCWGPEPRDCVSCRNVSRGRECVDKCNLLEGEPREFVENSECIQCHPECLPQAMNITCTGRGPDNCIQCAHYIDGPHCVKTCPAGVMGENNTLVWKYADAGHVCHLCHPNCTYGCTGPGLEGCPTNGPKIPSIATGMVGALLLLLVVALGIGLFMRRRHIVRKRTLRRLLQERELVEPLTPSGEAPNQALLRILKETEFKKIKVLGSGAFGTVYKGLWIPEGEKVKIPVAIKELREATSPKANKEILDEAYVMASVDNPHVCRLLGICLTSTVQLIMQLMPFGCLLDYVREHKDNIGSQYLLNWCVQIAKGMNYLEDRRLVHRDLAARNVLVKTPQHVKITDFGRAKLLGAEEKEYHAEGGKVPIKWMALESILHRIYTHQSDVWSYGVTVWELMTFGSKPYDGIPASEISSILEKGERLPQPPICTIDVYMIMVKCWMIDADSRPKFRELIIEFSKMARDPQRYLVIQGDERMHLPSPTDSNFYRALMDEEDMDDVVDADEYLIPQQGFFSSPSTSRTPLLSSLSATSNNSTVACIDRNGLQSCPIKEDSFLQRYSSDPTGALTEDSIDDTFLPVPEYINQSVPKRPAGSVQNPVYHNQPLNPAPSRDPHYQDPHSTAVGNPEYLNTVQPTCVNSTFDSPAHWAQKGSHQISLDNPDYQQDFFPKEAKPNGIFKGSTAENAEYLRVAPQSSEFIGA

Ki	SMILES
1 nM	COCC1CN(c2nn(C(C)C)c3cc(Nc4ccnc(-c5cnn(S(=O)(=O)C6CC6)c5)n4)ncc23)C1
< 0.6 nM	CC(C)n1nc(N2CCC(C(N)=O)C2)c2cnc(Nc3ccnc(-c4cnn(S(=O)(=O)C5CC5)c4)n3)cc21 (stereo unspecified)

target: EGFR (Human), P00533 [T790M/L858R]; details: nci-h1975

EC50	SMILES
20.9 nM	COCC1CN(c2nn(C(C)C)c3cc(Nc4ccnc(-c5cnn(S(=O)(=O)C6CC6)c5)n4)ncc23)C1
> 10000 nM	CC1COCC(C)N1c1nn(C(C)C)c2cc(Nc3ccnc(-c4cnn(S(=O)(=O)C5CC5)c4)n3)ncc12 (stereo unspecified)
> 10000 nM	CC(C)n1nc(F)c2cnc(Nc3ccnc(-c4cnn(S(=O)(=O)C5CC5)c4)n3)cc21

Continued, compound first:

SMILES	EC50
CC(C)n1nc(NC2CNC(=O)C2)c2cnc(Nc3ccnc(N4CCC(C)(O)CC4)n3)cc21 (stereo unspecified)	> 10000 nM
CCC(C)n1nc(N2CC[C@H](O)C2=O)c2cnc(Nc3ccnc(N4CC[C@@H](O)[C@@H](F)C4)n3)cc21 (stereo partly specified)	> 10000 nM
CC(C)n1nc(N2C[C@H](O)[C@@H](O)C2)c2cnc(Nc3ccnc(N4CCC(C)(O)CC4)n3)cc21	> 10000 nM

target: EGFR (Human), P00533 [T790M/L858R]; details: nci-h1975; remark: another data set of the same source

EC50	SMILES
211 nM	COCC1CN(c2nn(C(C)C)c3cc(Nc4ccnc(-c5cnn(S(=O)(=O)C6CC6)c5)n4)ncc23)C1
> 10000 nM	CC1COCC(C)N1c1nn(C(C)C)c2cc(Nc3ccnc(-c4cnn(S(=O)(=O)C5CC5)c4)n3)ncc12 (stereo unspecified)
> 10000 nM	CC(C)n1nc(F)c2cnc(Nc3ccnc(-c4cnn(S(=O)(=O)C5CC5)c4)n3)cc21
608 nM	CC(C)n1nc(N2CCC(C(N)=O)C2)c2cnc(Nc3ccnc(-c4cnn(S(=O)(=O)C5CC5)c4)n3)cc21 (stereo unspecified)
432 nM	CC(C)n1nc(N2CC(N3CCOCC3)C2)c2cnc(Nc3ccnc(-c4cnn(S(=O)(=O)C5CC5)c4)n3)cc21
1380 nM	CC(C)n1nc(N2CC(C(C)(C)C#N)C2)c2cnc(Nc3ccnc(-c4cnn(S(=O)(=O)C5CC5)c4)n3)cc21
586 nM	CCC(C)n1nc(N2CC[C@@H](O)C2=O)c2cnc(Nc3ccnc(-c4cnn(S(=O)(=O)C5CC5)c4)n3)cc21 (stereo partly specified)
241 nM	CC(C)n1nc(N2CCOC(CO)C2)c2cnc(Nc3ccnc(-c4cnn(S(=O)(=O)C5CC5)c4)n3)cc21 (stereo unspecified)
312 nM	CC(C)n1nc(N2CC(F)(F)C2)c2cnc(Nc3ccnc(-c4cnn(S(=O)(=O)C5CC5)c4)n3)cc21
190 nM	CC(C)n1nc(N2CC[C@@H](O)C2)c2cnc(Nc3ccnc(-c4cnn(S(=O)(=O)C5CC5)c4)n3)cc21
1140 nM	CC(C)n1nc(N2CC3(CN(CC(F)(F)F)C3)C2)c2cnc(Nc3ccnc(-c4cnn(S(=O)(=O)C5CC5)c4)n3)cc21
159 nM	CC(C)n1nc(N2CC(C(=O)N(C)C)C2)c2cnc(Nc3ccnc(-c4cnn(S(=O)(=O)C5CC5)c4)n3)cc21
484 nM	CCNC(=O)C1CN(c2nn(C(C)C)c3cc(Nc4ccnc(-c5cnn(S(=O)(=O)C6CC6)c5)n4)ncc23)C1
5440 nM	CC(C)n1nc(NCC(N)=O)c2cnc(Nc3ccnc(-c4cnn(S(=O)(=O)C5CC5)c4)n3)cc21
813 nM	CCC(C)n1nc(N2CCN(C(=O)[C@H](C)O)CC2)c2cnc(Nc3ccnc(-c4cnn(S(=O)(=O)C5CC5)c4)n3)cc21 (stereo partly specified)
630 nM	CC(C)n1nc(N2CC[C@H](O)C2=O)c2cnc(Nc3ccnc(-c4cnn(S(=O)(=O)C5CC5)c4)n3)cc21
266 nM	CC(O)C1CN(c2nn(C(C)C)c3cc(Nc4ccnc(-c5cnn(S(=O)(=O)C6CC6)c5)n4)ncc23)C1 (stereo unspecified)
236 nM	CCS(=O)(=O)n1cc(-c2nccc(Nc3cc4c(cn3)c(N3CC(C(=O)N(C)C)C3)nn4C(C)C)n2)cn1
740 nM	CC(C)n1nc(N2CCC3(CCNC3=O)C2)c2cnc(Nc3ccnc(-c4cnn(S(=O)(=O)C5CC5)c4)n3)cc21 (stereo unspecified)
232 nM	CC(C)n1nc(N2CCCC2=O)c2cnc(Nc3ccnc(-c4cnn(S(=O)(=O)C5CC5)c4)n3)cc21

EC50	SMILES
139 nM	CC(C)n1nc(N2CC[C@H](CO)C2)c2cnc(Nc3ccnc(-c4cnn(S(=O)(=O)C5CC5)c4)n3)cc21
4620 nM	CC(C)n1nc(NC(C)(C)C)c2cnc(Nc3ccnc(-c4cnn(S(=O)(=O)C5CC5)c4)n3)cc21
4620 nM	CC(Nc1nn(C(C)C)c2cc(Nc3ccnc(-c4cnn(S(=O)(=O)C5CC5)c4)n3)ncc12)C(N)=O (stereo unspecified)
240 nM	CC(C)n1nc(N2C[C@H](O)[C@@H](F)C2)c2cnc(Nc3ccnc(-c4cnn(S(=O)(=O)C5CC5)c4)n3)cc21
158 nM	CC(C)n1nc(N2CCC2)c2cnc(Nc3ccnc(-c4cnn(S(=O)(=O)C5CC5)c4)n3)cc21
3590 nM	CC(C)Oc1nn(C(C)C)c2cc(Nc3ccnc(-c4cnn(S(=O)(=O)C5CC5)c4)n3)ncc12
835 nM	CC(C)n1nc(N2CC[S+]([O-])CC2)c2cnc(Nc3ccnc(-c4cnn(S(=O)(=O)C5CC5)c4)n3)cc21
5590 nM	CCC(C)n1nc(N2C[C@@H](CO)NC2=O)c2cnc(Nc3ccnc(-c4cnn(S(=O)(=O)C5CC5)c4)n3)cc21 (stereo partly specified)
184 nM	CC(C)n1nc(N2CC(CC#N)C2)c2cnc(Nc3ccnc(-c4cnn(S(=O)(=O)C5CC5)c4)n3)cc21
> 10000 nM	CC(C)n1nc(N2CCN(C)C2=O)c2cnc(Nc3ccnc(-c4cnn(S(=O)(=O)C5CC5)c4)n3)cc21
167 nM	CC(C)n1nc(NC2COC2)c2cnc(Nc3ccnc(-c4cnn(S(=O)(=O)C5CC5)c4)n3)cc21
949 nM	CC(C)n1nc(N2CCS(=N)(=O)CC2)c2cnc(Nc3ccnc(-c4cnn(S(=O)(=O)C5CC5)c4)n3)cc21
271 nM	CC(C)n1nc(N2CC(CO)C2)c2cnc(Nc3ccnc(-c4cnn(S(=O)(=O)C5CC5)c4)n3)cc21
162 nM	CC(C)n1nc(N2CC[C@@H](CO)C2)c2cnc(Nc3ccnc(-c4cnn(S(=O)(=O)C5CC5)c4)n3)cc21
3700 nM	CC(C)c1nn(C(C)C)c2cc(Nc3ccnc(-c4cnn(S(=O)(=O)C5CC5)c4)n3)ncc12
138 nM	CCC(C)n1nc(N2CCNC2=O)c2cnc(Nc3ccnc(-c4cnn(S(=O)(=O)C5CC5)c4)n3)cc21 (stereo unspecified)
431 nM	CC(C)n1nc(N2CCC3(COC3)C2)c2cnc(Nc3ccnc(-c4cnn(S(=O)(=O)C5CC5)c4)n3)cc21
289 nM	CC(C)n1nc(N2CC(C)(O)C2)c2cnc(Nc3ccnc(-c4cnn(S(=O)(=O)C5CC5)c4)n3)cc21
1090 nM	CCC(C)n1nc(N2CCN(C(=O)[C@@H](C)O)CC2)c2cnc(Nc3ccnc(-c4cnn(S(=O)(=O)C5CC5)c4)n3)cc21 (stereo partly specified)
1200 nM	CC(C)n1nc(NCC(C)(C)O)c2cnc(Nc3ccnc(-c4cnn(S(=O)(=O)C5CC5)c4)n3)cc21

Second part, the compound before the results:

SMILES	EC50
CC(C)n1nc(NC2CNC(=O)C2)c2cnc(Nc3ccnc(N4CCC(C)(O)CC4)n3)cc21 (stereo unspecified)	> 10000 nM
CCC(C)n1nc(N2CC[C@H](O)C2=O)c2cnc(Nc3ccnc(N4CC[C@@H](O)[C@@H](F)C4)n3)cc21 (stereo partly specified)	> 10000 nM
CC(C)n1nc(N2C[C@H](O)[C@@H](O)C2)c2cnc(Nc3ccnc(N4CCC(C)(O)CC4)n3)cc21	> 10000 nM
CC(C)n1nc(N2CC[C@H](N)C2=O)c2cnc(Nc3ccnc(N4CCC(C)(O)CC4)n3)cc21	9730 nM
CCC(C)n1nc(N2CC3(COC3)C2)c2cnc(Nc3ccnc(N4CCC(C)(O)CC4)n3)cc21 (stereo unspecified)	881 nM
CC[C@H](C)n1nc(N2CC3(COC3)C2)c2cnc(Nc3ccnc(N4CC[C@@H](O)[C@@H](F)C4)n3)cc21	348 nM
CCC(C)n1nc(N2CCNC(=O)C2)c2cnc(Nc3ccnc(N4CCC(C)(O)CC4)n3)cc21 (stereo unspecified)	1760 nM
CC[C@H](C)n1nc(N2CC[C@H](O)C2)c2cnc(Nc3ccnc(N4CC[C@](C)(O)[C@H](F)C4)n3)cc21	371 nM
CC(C)n1nc(N2CC(O)C(F)(F)C2)c2cnc(Nc3ccnc(N4CCC(C)(O)CC4)n3)cc21 (stereo unspecified)	1330 nM
CC(C)n1nc(N2CC3(C2)C[S+]([O-])C3)c2cnc(Nc3ccnc(N4CCC(C)(O)CC4)n3)cc21	3910 nM
CCC(C)n1nc(N2CC[C@H](C(N)=O)C2)c2cnc(Nc3ccnc(N4CCC(C)(O)CC4)n3)cc21 (stereo partly specified)	2200 nM
CCC(C)n1nc(N2CCCC2=O)c2cnc(Nc3ccnc(N4CCC(C)(O)CC4)n3)cc21 (stereo unspecified)	569 nM
CC[C@@H](C)n1nc(N2CC3(COC3)C2)c2cnc(Nc3ccnc(N4CC[C@](C)(O)[C@H](F)C4)n3)cc21	1160 nM and 851 nM
CC(C)n1nc(NC2CCS(=O)(=O)C2)c2cnc(Nc3ccnc(-c4cnn(S(=O)(=O)C5CC5)c4)n3)cc21 (stereo unspecified)	1640 nM
CCC(C)n1nc(N2CC[C@@H](C(N)=O)C2)c2cnc(Nc3ccnc(N4CCC(C)(O)CC4)n3)cc21 (stereo partly specified)	7170 nM
COC1CCN(c2nccc(Nc3cc4c(cn3)c(N3CCCC3)nn4C(C)C)n2)CC1	380 nM
CCC(C)n1nc(N2CCNC2=O)c2cnc(Nc3ccnc(N4CC[C@H](O)[C@H](F)C4)n3)cc21 (stereo partly specified)	208 nM

SMILES	EC50
COC1CCN(c2nccc(Nc3cc4c(cn3)c(N3CC5(COC5)C3)nn4C(C)C)n2)CC1	388 nM
CC(C)n1nc(N2CC[C@@H](O)C2)c2cnc(Nc3ccnc(N4CCC(C)(O)CC4)n3)cc21	831 nM
CC(C)n1nc(NC2CCOCC2)c2cnc(Nc3ccnc(-c4cnn(S(=O)(=O)C5CC5)c4)n3)cc21	1110 nM
CC[C@@H](C)n1nc(N2CC3(COC3)C2)c2cnc(Nc3ccnc(OCC(C)(C)S(C)(=O)=O)n3)cc21	1240 nM
CCS(=O)(=O)n1cc(-c2nccc(Nc3cc4c(cn3)c(NC3COC3)nn4C(C)C)n2)cn1	921 nM
CC(C)n1nc(NCC(F)(F)F)c2cnc(Nc3ccnc(-c4cnn(S(=O)(=O)C5CC5)c4)n3)cc21	> 10000 nM
CC(C)n1nc(N2CC(C#N)CC2=O)c2cnc(Nc3ccnc(N4CCC(C)(O)CC4)n3)cc21 (stereo unspecified)	1100 nM
CCC(C)n1nc(N2CCCC2=O)c2cnc(Nc3ccnc(N4CC[C@@H](O)[C@@H](F)C4)n3)cc21 (stereo partly specified)	300 nM
COC1CCN(c2nccc(Nc3cc4c(cn3)c(N)nn4C[C@H]3CC[C@H](N)CC3)n2)CC1	> 10000 nM
CC(C)n1nc(N2CC3(C2)CS(=O)(=O)C3)c2cnc(Nc3ccnc(N4CCC(C)(O)CC4)n3)cc21	3090 nM
CCC(C)n1nc(N2CC[C@@H](O)C2)c2cnc(Nc3ccnc(N4CC[C@H](O)[C@H](F)C4)n3)cc21 (stereo partly specified)	263 nM
CC(C)n1ncc2cnc(Nc3ccnc(N4CCC(O)C(C)(C)C4)n3)cc21 (stereo unspecified)	110 nM
CCC(C)n1nc(N2CC(C(C)(C)O)C2)c2cnc(Nc3ccnc(N4CCC(O)C(C)(C)C4)n3)cc21 (stereo unspecified)	288 nM
CC(C)n1nc(N2CC(C(=O)N(C)C)C2)c2cnc(Nc3ccnc(N4CCC(O)C(C)(C)C4)n3)cc21 (stereo unspecified)	348 nM
CC[C@H](C)n1nc(N2CC3(COC3)C2)c2cnc(Nc3ccnc(N4CC[C@](C)(O)[C@H](F)C4)n3)cc21	874 nM and 631 nM
CC(C)n1nc(N2CCOCC2)c2cnc(Nc3ccnc(N4CCC(O)C(C)(C)C4)n3)cc21 (stereo unspecified)	1410 nM
